Results taken from paper PMC10835127, “Viruses traverse the human proteome through peptide interfaces that can be biomimetically leveraged for drug discovery” (Proceedings of the National Academy of Sciences of the …, 2024).
Like-named read-outs stand apart in the source and are kept apart here. No end group written: not given here.

Columns and labels:
HIV1 strain NL4-3 = format: cell-based; details: for HIV1 Norm MEAN: normalized mean of HIV1 replication readout; for activity in HIV1 screen (in words): 20 µM peptide, HeLa P4 cells, β-galactosidase
[1] = tested on: F. novicida (strain U112); format: cell-based
HCV replicon = format: cell-based; details: normalized mean of HCV replicon readout
influenza A H1N1 virus = details: 48 hr post-treatment, A549
EBV = details: for EBV Norm MEAN: normalized mean of EBV replication readout

| Substance | HIV1 Norm MEAN (HIV1 strain NL4-3) | Francisella novicida Norm AUC [1] | HCV Norm MEAN (HCV replicon) | Neuraminidase activity normalized to vehicle (influenza A H1N1 virus; 200 µM peptide) | Neuraminidase activity normalized to vehicle (influenza A H1N1 virus; 0,823 µM peptide) | Neuraminidase activity normalized to vehicle (influenza A H1N1 virus; 22,2 µM peptide) | Neuraminidase activity normalized to vehicle (influenza A H1N1 virus; 2,4691 µM peptide) | Neuraminidase activity normalized to vehicle (influenza A H1N1 virus; 7,4074 µM peptide) | Neuraminidase activity normalized to vehicle (influenza A H1N1 virus; 66,6667 µM peptide) | EBV Norm MEAN (EBV) | HIV1 Norm MEAN (HIV1 strain NL4-3; peptide screen) | HCV Norm MEAN (HCV replicon; peptide screen) | EBV Norm MEAN (EBV; peptide screen) | activity in HIV1 screen (in words) (HIV1 strain NL4-3) | Francisella novicida Norm AUC ([1]; normalized area under the curve) | inhibition of EBV late gene reporter signal (EBV; 48 h, 20 µM) [%] | inhibition of PI incorporation in F. novicida infected BMDMs (in words) [1] |
| --- | --- | --- | --- | --- | --- | --- | --- | --- | --- | --- | --- | --- | --- | --- | --- | --- | --- |
| RHIICHGGVI [CPEP133] | 7.136 | 0.5145 | 0.3927 | 0,0947 | 0,951 | 0,4954 | 0,9186 | 0,811 | 0,1797 | 1.143 | – | – | – | – | – | – | – |
| RKSASMS [CPEP82] | 1.975 | 1.194 | 0.267 | 0,8479 | 0,801 | 0,7544 | 0,6968 | 0,5924 | 0,9164 | 1.372 | – | – | – | – | – | – | – |
| RPEPTAPPEE [CPEP116] | 0.3699 | 0.6494 | 1.054 | 0,7624 | 0,9564 | 0,683 | 0,8677 | 0,7015 | 0,6644 | 0.4152 | – | – | – | – | – | – | – |
| RQARRNRRR [CPEP110] | 0.3127 | 1.637 | 0.05205 | 0,8723 | 1,0272 | 0,8952 | 0,9228 | 0,9411 | 0,8493 | 2.204 | – | – | – | – | – | – | – |
| RRKAK [CPEP70] | 3.517 | 0.442 | 0.1385 | 1,0392 | 0,9822 | 0,9863 | 0,9261 | 0,9473 | 1,0254 | 1.652 | – | – | – | – | – | – | – |
| RRPSRPFRK [CPEP88] | 0.3045 | 1.028 | 0.6746 | 0,55 | 0,9984 | 0,7716 | 0,8217 | 0,8463 | 0,6969 | 0.9654 | – | – | – | – | – | – | – |
| RRRETQV [CPEP148] | 0.7674 | 0.7414 | 0.1353 | 0,7433 | 0,8071 | 0,8272 | 0,7477 | 0,8788 | 0,7757 | 1.54 | – | – | – | – | – | – | – |
| RTYGTWEDLFCDESL [CPEP128] | – | 0.8745 | – | 0,6933 | 0,9138 | 1,0305 | 1,0131 | 0,9772 | 1,0247 | – | 0.383 | 0.6752 | 1.318 | – | – | – | – |
| RYSKRRHGRR [CPEP118] | 1.129 | 1.247 | 0.2514 | 0,7942 | 0,9639 | 0,7875 | 0,9014 | 0,7974 | 0,7776 | 1.996 | – | – | – | – | – | – | – |
| SAIASGIAVS [CPEP72] | 7.153 | 1.051 | 1.456 | 1,0607 | 1,0538 | 1,1913 | 1,1217 | 1,1419 | 1,1769 | 0.8997 | – | – | – | strongly | – | – | – |
| SAPCLLKLSTTLLCLEI [CPEP124] | – | 0.6911 | – | 0,1059 | 1,0611 | 0,6181 | 0,9657 | 1,0354 | 0,1507 | – | 14.9843 | 1.253 | 0.5543 | – | – | – | – |
| SEKHFRETEV [CPEP106] | 0.4711 | 0.8616 | 1.4 | 1,1108 | 0,9396 | 1,0803 | 0,9387 | 1,0552 | 1,1055 | 1.282 | – | – | – | – | – | – | – |
| SEWQRDQFLSQVK [CPEP95] | 0.5103 | – | 0.2824 | 0,9927 | 0,9256 | 0,9538 | 0,9776 | 0,9237 | 1,0019 | 0.3991 | – | – | – | – | 1.114 | 60 | – |
| SKMQL [CPEP150] | 1.8032 | 0.5976 | 0.2118 | 1,0149 | 0,912 | 0,9305 | 0,7746 | 0,8703 | 0,9907 | 1.198 | – | – | – | – | – | – | – |
| SLQYLALAALITPKK [CPEP46] | – | 0.3644 | – | 0,1529 | 0,9309 | 0,9118 | 1,043 | 1,0188 | 0,8482 | – | 2.169 | 0.6647 | 0.9835 | – | – | – | – |
| SVWIPVNEGASTSGM [CPEP77] | – | 1.232 | – | 0,8793 | 0,7817 | 0,9377 | 0,8942 | 0,7709 | 0,8131 | – | 0.1545 | 0.6626 | 1.026 | most potent anti-HIV1 peptide | – | – | – |
| TGERDW [CPEP119] | 0.9503 | 1.661 | 0.3105 | 0,8047 | 0,8876 | 0,8371 | 0,7125 | 0,8133 | 0,8609 | 0.6578 | – | – | – | – | – | – | – |
| TGGER [CPEP30] | 1.255 | 0.8411 | 0.2042 | 0,9647 | 0,957 | 0,923 | 0,8714 | 0,8974 | 0,9486 | 0.8583 | – | – | – | – | – | – | – |
| TIESEV [CPEP59] | 0.5804 | 0.4462 | 0.1611 | 1,1965 | 1,1044 | 1,0974 | 1,0801 | 1,0995 | 1,0953 | 1.967 | – | – | – | – | – | – | one of the most potent virus-derived peptides to inhibit PI incorporation |
| TRVESENKVVILDSFD [CPEP93] | – | 0.7068 | – | 1,1147 | 1,1071 | 1,1929 | 1,0829 | 1,1322 | 1,0883 | – | 10.6718 | 0.8288 | 1.069 | – | – | – | – |
